Results reported in ChEMBL document CHEMBL1127670, “Comparative molecular field analysis of the antitumor activity of 9H-thioxanthen-9-one derivatives against pancreatic ductal carcinoma 03” (1994).

Tests used:
Assay type in all cases: functional
Mus musculus [1] = experiment: Compound was tested for in vivo growth inhibition of pancreatic ductal adenocarcinoma (Panc 03) in mice, expressed as antitumor efficacy
Mus musculus [2] = experiment: Compound was tested for in vivo growth inhibition of pancreatic ductal adenocarcinoma (Panc 03) in mice, expressed as antitumor efficacy; range is 0-10
Mus musculus [3] = experiment: Compound was tested for in vivo growth inhibition of pancreatic ductal adenocarcinoma (Panc 03) in mice, expressed as antitumor efficacy; range is 26-42
Mus musculus [4] = experiment: The compound was tested for in vivo growth inhibition of pancreatic ductal adenocarcinoma (Panc 03) in mice.
Mus musculus [5] = experiment: Compound was tested for in vivo growth inhibition of pancreatic ductal adenocarcinoma (Panc 03) in mice, expressed as antitumor efficacy; range is 11-25

Compound `CCN(CC)CCNc1ccc(CN(CC)S(C)(=O)=O)c2sc3ccccc3c(=O)c12` has a T/C (Mus musculus [1]) of 0%.
In the case of `CNCc1ccc(NCCN(C)C)c2c(=O)c3ccccc3sc12`, the T/C (Mus musculus [2]) is reported as 10 score (0-10).
With `CN(C)CCNc1ccc(CNS(C)(=O)=O)c2sc3ccccc3c(=O)c12` the T/C (Mus musculus [1]) was 0%.
`CCN(CC)CCNc1ccc(CN(C)S(=O)(=O)CC)c2sc3ccccc3c(=O)c12` was tested, and the T/C (Mus musculus [2]) was 0 score (0-10).
In the case of `CNCc1ccc(NCCCN(C)C)c2c(=O)c3ccccc3sc12`, the T/C (Mus musculus [2]) is reported as 10 score (0-10).
`CCN(CC)CCNc1ccc(CN(C)C)c2sc3ccccc3c(=O)c12` gave a T/C (Mus musculus [3]) of 42%.
With `CCN(CC)CCNc1ccc(C(N)=O)c2sc3ccccc3c(=O)c12` the T/C (Mus musculus [1]) was 0%.
With `CCN(CC)CCNc1ccc(COC)c2sc3ccccc3c(=O)c12` the T/C (Mus musculus [3]) was 26%.
For `CCN(CC)CCNc1ccc(CNS(=O)(=O)c2ccc(N)cc2)c2sc3ccccc3c(=O)c12`, the T/C (Mus musculus [4]) was 3%.
`CCN(CC)CCNc1ccc(/C=N/c2ccccc2)c2sc3ccccc3c(=O)c12` showed a T/C (Mus musculus [4]) of 2%.
Work on `Cc1ccc(NCCN(C)C)c2c(=O)c3ccccc3sc12` yielded a T/C (Mus musculus [5]) of 25%.
With `CCN(CC)CCNc1ccc(CNS(=O)(=O)c2ccccc2)c2sc3ccccc3c(=O)c12` the T/C (Mus musculus [2]) was 10 score (0-10).
In the case of `CCN(CC)CCNc1ccc(CNC(=O)c2ccccc2)c2sc3ccccc3c(=O)c12`, the T/C (Mus musculus [5]) is reported as 25%.
`CCN(CC)CCNc1ccc(COC(=O)C(C)(C)C)c2sc3ccccc3c(=O)c12` gave a T/C (Mus musculus [3]) of 42%.
`CCN(CC)CCNc1ccc(CSC)c2sc3ccccc3c(=O)c12` was tested, and the T/C (Mus musculus [2]) was 10 score (0-10).
Work on `CCCCCCC(=O)OCc1ccc(NCCN(CC)CC)c2c(=O)c3ccccc3sc12` yielded a T/C (Mus musculus [4]) of 2%.
`CCN(CC)CCNc1ccc(CNC(C)=O)c2sc3ccccc3c(=O)c12` showed a T/C (Mus musculus [1]) of 0%.
Compound `CCN(CC)CCNc1ccc(CN(C)S(C)(=O)=O)c2sc3ccccc3c(=O)c12` has a T/C (Mus musculus [1]) of 0%.
`CCN(C=O)Cc1ccc(NCCN(CC)CC)c2c(=O)c3ccccc3sc12` gave a T/C (Mus musculus [1]) of 0%.
`CCNCc1ccc(NCCN(CC)CC)c2c(=O)c3ccccc3sc12` showed a T/C (Mus musculus [1]) of 0%.
In the case of `CN(C)CCNc1ccc(CN)c2sc3ccccc3c(=O)c12`, the T/C (Mus musculus [1]) is reported as 0%.
In the case of `CCN(CC)CCNc1ccc(CO)c2sc3ccccc3c(=O)c12` [HYCANTHONE], the T/C (Mus musculus [5]) is reported as 25%.
